Reference: US7585859B2, “PDE4B inhibitors and uses therefor” (Plexxikon, Inc., priority 2004, dated 2009)

What was measured:
Assay type in all cases: biochemical
[1] = molecular target: T1, PDE4B: The catalytic domain of human PDE4B from S152-S528 (Homo sapiens, UniProt Q07343); assay: PDE4 IC50 determination by Scintillation Proximity Assay, PDE4B; settings: Table 1B, Formula I compounds; read-out: IC50 PDE4B
T1 construct: His6 (N); thrombin cleavage site (N); made in house; host or cells: E. coli
T1 sequence (Q07343 with tags, fused parts or gaps): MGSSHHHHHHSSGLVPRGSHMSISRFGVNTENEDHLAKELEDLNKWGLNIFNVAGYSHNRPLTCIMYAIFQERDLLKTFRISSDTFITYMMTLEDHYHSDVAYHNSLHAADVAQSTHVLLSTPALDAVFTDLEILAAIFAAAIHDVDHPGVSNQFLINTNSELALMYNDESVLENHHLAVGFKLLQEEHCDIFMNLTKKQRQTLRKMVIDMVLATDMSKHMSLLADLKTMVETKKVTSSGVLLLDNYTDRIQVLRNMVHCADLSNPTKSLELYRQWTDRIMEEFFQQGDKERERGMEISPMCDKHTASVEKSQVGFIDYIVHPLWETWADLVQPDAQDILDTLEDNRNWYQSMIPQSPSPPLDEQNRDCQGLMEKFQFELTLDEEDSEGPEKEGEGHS
Procedure, shortened: (§1)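 Radiometric SPA: PDE4B (80 ng/ml) or PDE4D (4 ng/ml) hydrolysed [^3H]cAMP over 30 min at 30°, and the bead-bound [^3H]AMP was scintillation-counted.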

[2] = molecular target: T2, full-length human PDE4D5 isozyme (Homo sapiens, UniProt Q08499); assay: PDE4 IC50 determination by Scintillation Proximity Assay, PDE4D5; settings: Table 1B, Formula I compounds; read-out: IC50 PDE4D5
T2 construct: The full-length human PDE4D5 isozyme; His6 (N); TEV cleavage site (N); made in house; host or cells: baculovirus infected insect cells (unpurified lysate)
T2 sequence (Q08499 1-745 isoform Q08499-6): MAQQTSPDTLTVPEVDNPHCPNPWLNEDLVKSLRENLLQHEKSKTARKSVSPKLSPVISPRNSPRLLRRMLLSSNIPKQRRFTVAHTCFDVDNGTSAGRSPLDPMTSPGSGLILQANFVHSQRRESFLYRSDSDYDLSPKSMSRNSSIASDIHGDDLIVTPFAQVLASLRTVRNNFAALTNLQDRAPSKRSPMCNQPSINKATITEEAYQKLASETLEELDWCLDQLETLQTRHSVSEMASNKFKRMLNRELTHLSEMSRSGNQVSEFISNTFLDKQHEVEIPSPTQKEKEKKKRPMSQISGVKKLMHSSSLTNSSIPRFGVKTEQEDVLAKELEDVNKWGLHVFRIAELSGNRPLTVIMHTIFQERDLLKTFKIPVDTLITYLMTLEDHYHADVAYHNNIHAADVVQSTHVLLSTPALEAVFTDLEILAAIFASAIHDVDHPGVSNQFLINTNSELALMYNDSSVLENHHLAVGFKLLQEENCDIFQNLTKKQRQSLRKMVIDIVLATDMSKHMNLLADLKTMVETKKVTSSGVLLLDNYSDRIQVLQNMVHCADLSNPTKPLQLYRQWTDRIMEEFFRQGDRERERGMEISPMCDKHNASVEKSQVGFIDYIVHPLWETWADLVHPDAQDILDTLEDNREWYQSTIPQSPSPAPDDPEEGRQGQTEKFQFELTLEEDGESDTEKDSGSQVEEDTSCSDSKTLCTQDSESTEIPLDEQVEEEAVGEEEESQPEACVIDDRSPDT
Procedure: (§2) IC50s were determined by Scintillation Proximity Assay (SPA). The principle of the assay is based on the fact that cAMP, the PDE4 substrate, binds weakly to Yittrium Silicate SPA beads, whereas AMP, the product of PDE4 hydrolysis binds strongly. Thus, the extent of PDE4 hydrolysis of a sample of [^3H]cAMP can be measured because only the
(§3) [^3H]AMP produced by PDE4 hydrolysis will bind to the SPA beads and produce a scintillation signal.
(§4) PDE4 enzymes used for IC50 assays were:
PDE4D5: The full-length human PDE4D5 isozyme with an N-terminal His6 tag (SEQ ID NO: 18) and TEV cleavage site expressed in baculovirus infected insect cells. The enzyme was not purified from the cell lysates, so enzyme concentrations were not determined. Enzyme was stored in 50% glycerol at −20°.
(§5) Compounds tested (see Tables 3B, 4B and 5A for compounds and results) were 3-fold serially diluted 11 times in DMSO from a starting concentration of 4 mM or 40 μM, depending on compound potency. 1 μl of each dilution was transferred into duplicate wells of a white polystyrene 384-well assay plate (Coming #3705). In addition to the compound dilutions, each assay plate contained control wells with 1 μl of DMSO (to define 0% enzyme inhibition) or 1 μl of 200 μM roflumilast (to define 100% enzyme inhibition). Using a Beckman FX robot, 10 μl of [^3H] cAMP (Amersham TRK559) at 2 mCi/ml in assay buffer (50 mM Tris, pH 7.5; 8.3 mM MgCl; 1.7 mM EGTA; 0.01% BSA) was transferred to each assay well. Next, 10 μl of PDE4 enzyme in assay buffer was added and the plates were shaken for 30 s. at 1000 rpm to start the cAMP hydrolysis reaction. The concentrations of enzyme used were: PDE4B, 80 ng/ml; PDE4D, 4 ng/ml; PDE4B2, 2.5 μl of 50% glycerol stock/ml; PDE4D5 0.083 μl of 50% glycerol stock/ml. Assay plates were covered and incubated for 30 min. at 30°. Reactions were stopped by robotic addition of 10 μl of 5 mg/ml SPA beads (Amersham RPNQ0013) in 18 mM ZnSO4. The assay plates were covered with clear plastic film, centrifuged for 1 min. at 1000 RPM to settle the SPA beads, and counted using a Wallac TriLux scintillation counter. IC50's were calculated from the raw assay data by non-linear regression curve fitting using the Assay Explorer software package from MDL.

[3] = molecular target: T3, full-length human PDE4B2 isozyme (Homo sapiens, UniProt Q07343); assay: PDE4 IC50 determination by Scintillation Proximity Assay, PDE4B2; settings: Table 1B, Formula I compounds; read-out: IC50 PDE4B2
T3 construct: The full-length human PDE4B2 isozyme; His6 (N); TEV cleavage site (N); made in house; host or cells: baculovirus infected insect cells (unpurified lysate)
T3 sequence (Q07343 1-564 isoform Q07343-2): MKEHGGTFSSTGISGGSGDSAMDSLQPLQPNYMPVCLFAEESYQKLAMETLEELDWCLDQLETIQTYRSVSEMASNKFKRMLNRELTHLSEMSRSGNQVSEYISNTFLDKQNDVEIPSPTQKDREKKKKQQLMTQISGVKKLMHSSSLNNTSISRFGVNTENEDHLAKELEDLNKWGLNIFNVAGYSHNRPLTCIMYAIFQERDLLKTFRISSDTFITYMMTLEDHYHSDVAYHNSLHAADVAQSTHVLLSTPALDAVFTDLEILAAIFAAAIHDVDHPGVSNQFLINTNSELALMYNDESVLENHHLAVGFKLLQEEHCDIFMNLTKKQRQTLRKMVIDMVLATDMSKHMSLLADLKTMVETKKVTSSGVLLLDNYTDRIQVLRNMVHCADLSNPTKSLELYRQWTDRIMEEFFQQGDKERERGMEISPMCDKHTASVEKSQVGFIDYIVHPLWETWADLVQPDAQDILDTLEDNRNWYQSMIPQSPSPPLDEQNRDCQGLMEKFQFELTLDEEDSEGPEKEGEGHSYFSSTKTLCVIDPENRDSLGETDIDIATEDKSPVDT
Procedure: as §2, §3, §4
PDE4B2: The full-length human PDE4B2 isozyme with an N-terminal His6 tag (SEQ ID NO: 18) and TEV cleavage site expressed in baculovirus infected insect cells. The enzyme was not purified from the cell lysates, so enzyme concentrations were not determined. Enzyme was stored in 50% glycerol at −20°.
as §5

PDE4D = molecular target: T4, PDE4D (Homo sapiens, UniProt Q08499); assay: PDE4 IC50 determination by Scintillation Proximity Assay, PDE4D; settings: Table 1B, Formula I compounds; read-out: IC50 PDE4D
T4 construct: PDE4D: The catalytic domain of human PDE4B from S3 16-V692; His6 (N); thrombin cleavage site (N); made in house; host or cells: E. coli
T4 sequence (Q08499 380-756): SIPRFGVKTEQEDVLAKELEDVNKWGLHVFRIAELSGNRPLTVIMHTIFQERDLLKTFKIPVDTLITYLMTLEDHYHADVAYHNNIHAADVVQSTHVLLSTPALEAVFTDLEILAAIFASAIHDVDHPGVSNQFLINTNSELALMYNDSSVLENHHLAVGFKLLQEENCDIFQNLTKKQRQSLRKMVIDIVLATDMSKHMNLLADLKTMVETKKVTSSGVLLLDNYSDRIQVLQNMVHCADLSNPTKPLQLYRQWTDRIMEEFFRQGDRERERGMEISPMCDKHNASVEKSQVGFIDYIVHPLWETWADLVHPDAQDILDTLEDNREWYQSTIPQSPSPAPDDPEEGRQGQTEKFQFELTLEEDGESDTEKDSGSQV
Procedure, shortened: as §1

IC50 [1]	IC50 [2]	IC50 [3]	IC50 (PDE4D)	Compound
< 10 µM	< 10 µM	< 10 µM	< 10 µM	COc1ccc(C(=O)c2sc(NC3CCCC3)c(C#N)c2N)c(OC)c1 [Compound 1-43, 4-Amino-2-cyclopentylamino-5-(2,4-dimethoxy-benzoyl)-thiophene-3-carbonitrile]
< 10 µM	< 10 µM	< 10 µM	< 10 µM	COc1ccc(Nc2sc(C(=O)c3cnn(-c4ccccc4)c3C)c(N)c2C#N)cc1 [Compound 1-50, 4-Amino-2-(4-methoxy-phenylamino)-5-(5-methyl-1-phenyl-1H-pyrazole-4-carbonyl)-thiophene-3-carbonitrile]
< 10 µM	< 10 µM	< 10 µM	< 10 µM	Cc1c(C(=O)c2sc(NC3CCCC3)c(C#N)c2N)cnn1-c1ccccc1 [Compound 1-55, 4-Amino-2-cyclopentylamino-5-(5-methyl-1-phenyl-1H-pyrazole-4-carbonyl)-thiophene-3-carbonitrile]
> 10 µM	> 10 µM	> 10 µM	< 10 µM	Cc1c(C(=O)c2sc(NCC3CCCO3)c(C#N)c2N)cnn1-c1ccccc1 (stereo not drawn) [Compound 1-57, 4-Amino-5-(5-methyl-1-phenyl-1H-pyrazole-4-carbonyl)-2-[(tetrahydro-furan-2-ylmethyl)-amino]-thiophene-3-carbonitrile]
< 10 µM	< 10 µM	< 10 µM	< 10 µM	Cc1onc(-c2ccccc2)c1C(=O)c1sc(NC2CCCC2)c(C#N)c1N [Compound 1-61, 4-Amino-2-cyclopentylamino-5-(5-methyl-3-phenyl-isoxazole-4-carbonyl)-thiophene-3-carbonitrile]
> 10 µM	> 10 µM	> 10 µM	> 10 µM	N#Cc1c(NCCN2CCCCC2)sc(C(=O)c2cc(-c3ccccc3)no2)c1N [Compound 1-62, 4-Amino-5-(3-phenyl-isoxazole-5-carbonyl)-2-(2-piperidin-1-yl-ethylamino)-thiophene-3-carbonitrile]
< 10 µM	< 10 µM	< 10 µM	< 10 µM	N#Cc1c(NC2CCCC2)sc(C(=O)c2ccccn2)c1N [Compound 1-66, 4-Amino-2-cyclopentylamino-5-(pyridine-2-carbonyl)-thiophene-3-carbontrile]
< 10 µM	< 10 µM	< 10 µM	< 10 µM	N#Cc1c(Nc2ccccc2F)sc(C(=O)c2ccc(-c3ccccn3)s2)c1N [Compound 1-67, 4-Amino-2-(2-fluoro-phenylamino)-5-(5-pyridin-2-yl-thiophene-2-carbonyl)-thiophene-3-carbonitrile]
< 10 µM	> 10 µM	> 10 µM	< 10 µM	COc1ccc(Nc2sc(C(=O)c3ccc(-c4ccccn4)s3)c(N)c2C#N)cc1 [Compound 1-68, 4-Amino-2-(4-methoxy-phenylamino)-5-(5-pyridin-2-yl-thiophene-2-carbonyl)-thiophene-3-carbonitrile]
< 10 µM	< 10 µM	< 10 µM	< 10 µM	N#Cc1cccc(Nc2sc(C(=O)c3ccc(-c4ccccn4)s3)c(N)c2C#N)c1 [Compound 1-69, 4-Amino-2-(3-cyano-phenylamino)-5-(5-pyridin-2-yl-thiophene-2-carbonyl)-thiophene-3-carbonitrile]
< 10 µM	> 10 µM	< 10 µM	< 10 µM	N#Cc1c(Nc2ccc3c(c2)CCC3)sc(C(=O)c2ccc(-c3ccccn3)s2)c1N [Compound 1-71, 4-Amino-2-(indan-5-ylamino)-5-(5-pyridin-2-yl-thiophene-2-carbonyl)-thiophene-3-carbonitrile]
< 10 µM	< 10 µM	< 10 µM	< 10 µM	COC(=O)C(CCSC)Nc1sc(C(=O)c2ccc(-c3ccccn3)s2)c(N)c1C#N (stereo not drawn) [Compound 1-74, 2-[4-Amino-3-cyano-5-(5-pyridin-2-yl-thiophene-2-carbonyl)-thiophen-2-ylamino]-4-methylsulfanyl-butyric acid methyl ester]
< 10 µM	< 10 µM	< 10 µM	< 10 µM	COc1ccc(CNc2sc(C(=O)c3ccc(-c4ccccn4)s3)c(N)c2C#N)cc1OC [Compound 1-75, 4-Amino-2-(3,4-dimethoxy-benzylamino)-5-(5-pyridin-2-yl-thiophene-2-carbonyl)-thiophene-3-carbonitrile]
< 10 µM	< 10 µM	< 10 µM	< 10 µM	N#Cc1c(Nc2ccc(C(=O)NC3CCOC3=O)cc2)sc(C(=O)c2ccc(-c3ccccn3)s2)c1N (stereo not drawn) [Compound 1-77, 4-[4-Amino-3-cyano-5-(5-pyridin-2-yl-thiophene-2-carbonyl)-thiophen-2-ylamino]-N-(2-oxo-tetrahydro-furan-3-yl)-benzamide]
< 10 µM	< 10 µM	< 10 µM	< 10 µM	N#Cc1c(NC2CCCC2)sc(C(=O)c2ccc(-c3ccccn3)s2)c1N [Compound 1-78, 4-Amino-2-cyclopentylamino-5-(5-pyridin-2-yl-thiophene-2-carbonyl)-thiophene-3-carbonitrile]
< 10 µM	> 10 µM	> 10 µM	< 10 µM	CCc1ccccc1Nc1sc(C(=O)c2ccc(-c3ccccn3)s2)c(N)c1C#N [Compound 1-81, 4-Amino-2-(2-ethyl-phenylamino)-5-(5-pyridin-2-yl-thiophene-2-carbonyl)-thiophene-3-carbonitrile]
> 10 µM	> 10 µM	> 10 µM	> 10 µM	N#Cc1c(NCCN2CCCCC2)sc(C(=O)c2cc(-c3ccc(Cl)cc3Cl)no2)c1N [Compound 1-82, 4-Amino-5-[3-(2,4-dichloro-phenyl)-isoxazole-5-carbonyl]-2-(2-piperidin-1-yl-ethylamino)-thiophene-3-carbonitrile]
> 10 µM	> 10 µM	> 10 µM	> 10 µM	N#Cc1c(NCCN2CCCCC2)sc(C(=O)c2cc(-c3ccc(Cl)c(Cl)c3)no2)c1N [Compound 1-83, 4-Amino-5-[3-(3,4-dichloro-phenyl)-isoxazole-5-carbonyl]-2-(2-piperidin-1-yl-ethylamino)-thiophene-3-carbonitrile]
< 10 µM	< 10 µM	< 10 µM	< 10 µM	COc1ccc(Nc2sc(C(=O)c3ccc(C)cc3C)c(N)c2C#N)cc1 [Compound 1-85]
< 10 µM	> 10 µM	> 10 µM	< 10 µM	Cc1ccc(C(=O)c2sc(NC(=O)c3ccccc3C)c(C#N)c2N)c(C)c1 [Compound 1-86, N-[4-Amino-3-cyano-5-(2,4-dimethyl-benzoyl)-thiophen-2-yl]-2-methyl-benzamide]
< 10 µM	< 10 µM	< 10 µM	< 10 µM	Cc1ccc(C(=O)c2sc(NC3CCCC3)c(C#N)c2N)c(C)c1 [Compound 1-90, 4-Amino-2-cyclopentylamino-5-(2,4-dimethyl-benzoyl)-thiophene-3-carbonitrile]
